Measurements reported in patent US8455009B2, “Amniotic membrane preparations and purified compositions and anti-inflammation methods” (TissueTech, Inc., priority 2005, dated 2013).

Assays:
Raw264.7 cells = assay: NO assay (nitrite, Griess reagent) in Raw264.7 macrophages; type: cell-based, mouse; details: 500 μM inhibitor; cells cultured on AM
Method: Raw 264.7 cells, a mouse macrophage cell line, were obtained from the ATCC and cultured in phenol red-free Dulbecco's modified Eagle's medium (DMEM) supplemented with 10% fetal bovine serum, 50 μg/ml gentamicin, and 1.25 μg/ml fungizone in 100 mm culture dishes. When cells became 70%-80% confluent, the medium was removed and cells were treated with trypsin/EDTA for 10 min at 25° C. After digestion, cells were still firmly attached to the dish, so the trypsin/EDTA solution was removed. […] After centrifugation at 500×g for 5 min, the medium was removed, the cell pellet resuspended in the DMEM/ITS medium, cells counted, and cell density adjusted to 0.5×10^6/ml. […]
At the end of the cultivation, the cell culture medium in each well was harvested individually and centrifuged at 12,000×g for 10 min at 4° C. […] NO production was assessed by measuring the nitrite, its stable degradation product, using Griess reagent according to the manufacturer's protocol. Briefly, 50 μl of the cleared medium was mixed with 100 μl of the Griess reagents (ICN Biomedicals, Aurora, Ohio), after 15 min the absorbance was measured at 550 nm using Fusion™ universal microplate analyzer (Packard, Meriden, Conn.). The amount of nitrite was calculated from a standard curve of sodium nitrite (NaNO2; Sigma, St. Louis, Mo.).

Raw 264.7 cells = assay: Hoechst-33342 nuclear staining of macrophages; type: cell-based, mouse; details: 500 μM inhibitor; cells on AM with IFN γ
Source text: To determine if the aforementioned cell death was mediated by apoptosis, cells in parallel experiments were subjected to Hoechst-33342 staining. Fragmented nuclei with strong Hoechst staining were found more in AM/IFN γ as compared to AM without IFN γ and to their plastic controls. Percentages of Hoechst-33342-positive apoptotic nuclei were 12.4±2.7% (PL), 16.5±3.1% (PL/IFN γ), 14.7±1.1% (AM), and 63.8±7.9% (AM/IFN γ). There was no statistical difference between PL and PL/IFN γ and between PL and AM (all p>0.05), while there was a statistical difference between AM and AM/IFN γ and between PL/IFNγ and AM/IFNγ (all p<0.001). […] In contrast, there was no such giant cell in AM/IFNγ cultures.

[1] = test system: human corneal fibroblasts; assay: Cell morphology and density of human corneal fibroblasts after treatment; type: cell-based; details: HA alone; low concentrations of AME or jelly extracts
Source text: The above changes were even more dramatic in lyophilized AME or L/AME than their non-lyophilized counterparts in AME or Jelly extracts, respectively (FIG. 6).

TGF-β1 promoter = TGF-β1 promoter suppression (adenoviral promoter-luciferase) in human corneal fibroblasts; type: cell-based
Method: When human corneal fibroblasts cultured on 100 mm plastic dish in DMEM/10% FBS reached 80% confluency (˜1.0×10^6 cells), cells were washed twice with DMEM/10% FBS. Adenoviruses-TGF-β1 promoter-luciferase (MOI=37.5) and Adeno-CMV-beta-gal (MOI=30) were added to the culture plates with 10 ml of the fresh DMEM/10% FBS and cells were incubated at 37° C. for 4 hours, and trypsinized for 5 minutes using 4 ml prewarmed trypsin/EDTA. After trypsin/EDTA activity was neutralized with 8 ml of DMEM/10% FBS, cells were collected into a 15 ml tube and centrifuged at 1,500 rpm (˜600×g) for 5 min. After decanting the medium, cells were resuspended in 15 ml DMEM/10% FBS, and cell viability was measured by trypan blue stain. Viable 3×10^4 cells were seeded on a plastic 24 well or on the stromal surface of AM inserts. A total of 4 wells or inserts were prepared. Cells were then incubated at 37° C. in a CO2 incubator for 48 hours.
After carefully removing the growth medium from each well, cells were rinsed with 0.5 ml PBS at lease twice, taking care not to dislodge attached cells. After removing as much as PBS in the well, 100 μl 1× lysis buffer was added to cover the cells, and cells were mechanically scraped and transferred to a microcentrifuge tube placed on ice. Cell lysates were collected by vortexing for 10-15 sec and centrifuging at 12,000×g for 15 sec at room temperature. […]

suppressive activity on TGF-β1 promoter, HA alone (TGF-β1 promoter; 100 μg/ml) | suppression of TGF-β1 promoter activation (TGF-β1 promoter; compared to the PBS control, normalized with beta-galatosidase activity, FIG. 5) | Compound | IFN γ induced nitrite level with NO synthase inhibitor (Raw264.7 cells) [µM] | extent of macrophage apoptosis with NO synthase inhibitor (Raw 264.7 cells) | change in cell morphology [1]
– | – | CC(=N)NCCCC[C@H](N)C(=O)O.Cl [L-NIL, L-N-6-(1-iminoethyl) lysine hydrochloride] | 14.0 ± 9.8 | not significantly attenuated | –
– | – | CC(=O)O.CNC(=N)NCCC[C@H](N)C(=O)O [L-NMMA, NG-monomethyl-L-arginine acetate] | 19.8 ± 4.9 | not significantly attenuated | –
mild suppressive activity | showed suppression | hyaluronic acid [HA] | – | – | no change in cell morphology
